# Experimental data taken from patent publication US20120183579A1, “COMPOUNDS FOR INFLAMMATION AND IMMUNE-RELATED USES” (Synta Pharmaceuticals Corp., priority 2008, published 2012).
# Where a name gives a salt, the structure may show the parent alone.
# Tested on: IL-2
# Assay: Inhibition of IL-2 production (Jurkat cells activated with PHA, ELISA)
# Assay type: cell-based
# Conditions: Homo sapiens, Jurkat, Jurkat/PHA/1% FBS; activity class
# Experimental: Jurkat cells were placed in a 96 well plate (0.5 million cells per well in 1% FBS medium), and then a test compound of this invention was added at different concentrations. After 10 minutes, the cells were activated with PHA (final concentration 2.5 μg/mL) and incubated for 20 hours at 37° C. under 5% CO2. The final volume was 200 μL. Following incubation, the cells were centrifuged, and the supernatants collected and stored at −70° C. prior to assaying for IL-2 production. A commercial ELISA kit (IL-2 Eli-pair, Diaclone Research, Besancon, France) was used to detect production of IL-2, from which dose response curves were obtained. The IC50 value was calculated as the concentration at which 50% of maximum IL-2 production after stimulation was inhibited versus a non-stimulation control.
row,IC50 [nM],SMILES
1,50 to 100,"CC1=C(c2cnc(NC(=O)c3c(F)cccc3F)cn2)CN(c2nc(-c3cccnc3)cs2)CC1 [Compound 17, 2,6-difluoro-N-(5-(4-methyl-1-(4-(pyridin-3-yl)thiazol-2-yl)-1,2,5,6-tetrahydropyridin-3-yl)pyrazin-2-yl)benzamide]"

# Same assay, conditions: Homo sapiens, Jurkat, Jurkat/PHA/1% FBS; numeric values
row,IC50 [nM],SMILES
1,13,"CC1=C(c2ccc(NC(=O)c3ccccc3F)cc2)CN(c2nccs2)CC1 [Compound 7, 2-fluoro-N-(4-(4-methyl-1-(thiazol-2-yl)-1,2,5,6-tetrahydropyridin-3-yl)phenyl)benzamide]"
2,14,"Cn1nnc(N2CCC(C3CC3)=C(c3ccc(NC(=O)c4c(F)cccc4F)cc3)C2)n1 [Compound 8, N-(4-(4-cyclopropyl-1-(2-methyl-2H-tetrazol-5-yl)-1,2,5,6-tetrahydropyridin-3-yl)phenyl)-2,6-difluorobenzamide]"
3,15,"CC1=C(c2cnc(NC(=O)c3c(F)cccc3F)cn2)CN(c2ncc(C)s2)CC1 [Compound 9, 2,6-difluoro-N-(5-(4-methyl-1-(5-methylthiazol-2-yl)-1,2,5,6-tetrahydropyridin-3-yl)pyrazin-2-yl)benzamide hydrochloride]"
4,18,"CC1=C(c2cnc(NC(=O)c3c(F)cccc3F)cn2)CN(c2ncccc2C#N)CC1 [Compound 10, N-(5-(1-(3-cyanopyridin-2-yl)-4-methyl-1,2,5,6-tetrahydropyridin-3-yl)pyrazin-2-yl)-2,6-difluorobenzamide]"
5,19,"O=C(Nc1cnc(C2=C(Cl)CCN(c3nccs3)C2)cn1)c1c(F)cccc1F [Compound 12, N-(5-(4-chloro-1-(thiazol-2-yl)-1,2,5,6-tetrahydropyridin-3-yl)pyrazin-2-yl)-2,6-difluorobenzamide hydrochloride]"
6,30,"CC1=C(c2cnc(NC(=O)c3cc(F)ccc3C)cn2)CN(c2ncccc2F)CC1 [Compound 13, 5-fluoro-N-(5-(1-(3-fluoropyridin-2-yl)-4-methyl-1,2,5,6-tetrahydropyridin-3-yl)pyrazin-2-yl)-2-methylbenzamide]"
7,30,"CC1=C(c2cnc(NC(=O)c3cc(F)ccc3Cl)cn2)CN(c2ncccc2F)CC1 [Compound 16, 2-chloro-5-fluoro-N-(5-(1-(3-fluoropyridin-2-yl)-4-methyl-1,2,5,6-tetrahydropyridin-3-yl)pyrazin-2-yl)benzamide]"
8,32,"CCn1nnc(N2CCC(C)=C(c3cnc(NC(=O)c4c(F)cccc4Cl)cn3)C2)n1 [Compound 18, 2-chloro-N-(5-(1-(2-ethyl-2H-tetrazol-5-yl)-4-methyl-1,2,5,6-tetrahydropyridin-3-yl)pyrazin-2-yl)-6-fluorobenzamide]"
9,36,"CC1=C(c2cnc(NC(=O)c3c(F)cccc3F)cn2)CN(c2ncc(F)cc2F)CC1 [Compound 19, N-(5-(1-(3,5-difluoropyridin-2-yl)-4-methyl-1,2,5,6-tetrahydropyridin-3-yl)pyrazin-2-yl)-2,6-difluorobenzamide]"
10,52,"CC1=C(c2ccc(NC(=O)c3c(F)cccc3F)cc2)CN(c2nnn(C)n2)CC1 [Compound 20, 2,6-difluoro-N-(4-(4-methyl-1-(2-methyl-2H-tetrazol-5-yl)-1,2,5,6-tetrahydropyridin-3-yl)phenyl)benzamide]"
11,55,"CC1=C(c2cnc(NC(=O)c3cc(F)ccc3Cl)cn2)CN(c2nccs2)CC1 [Compound 21, 2-chloro-5-fluoro-N-(5-(4-methyl-1-(thiazol-2-yl)-1,2,5,6-tetrahydropyridin-3-yl)pyrazin-2-yl)benzamide]"
12,10,"CC1=C(c2cnc(NC(=O)c3ccc(F)cc3F)cn2)CN(c2nccs2)CC1 [Compound 22, 2,4-difluoro-N-(5-(4-methyl-1-(thiazol-2-yl)-1,2,5,6-tetrahydropyridin-3-yl)pyrazin-2-yl)benzamide]"
13,14,"CC1=C(c2ccc(NC(=O)c3ccncc3F)cc2)CN(c2ncccc2F)CC1 [Compound 23, 3-fluoro-N-(4-(1-(3-fluoropyridin-2-yl)-4-methyl-1,2,5,6-tetrahydropyridin-3-yl)phenyl)isonicotinamide]"
